Key:
influenza-infected mice [1] = assay: Influenza-induced loss of body weight in treated infected mice; assay type: in vivo, mouse
Method: (§1) The pharmacologic blockade of CD73 with APCP (5′-(α,β-methylene)diphosphate) reduces BALF adenosine levels and thereby ameliorates acute lung injury in influenza-infected mice. We investigated effects of daily gavage with APCP (20 mg/kg, in 200 μl saline) on body weight, arterial O2 saturation (SpO2; measured in conscious mice with the MouseOx pulse oximetry system) and survival in 2 groups of 10 individually-marked influenza-infected mice, and compared these animals to mock-infected and untreated influenza-infected mice. […] (FIG. 4C). In fact, 20% of APCP-treated mice survived infection, whereas all untreated mice died. Importantly, APCP gavage had no effect on lung homogenate virus titers at 2 d.p.i. (not shown).
(§2) A1-AdoR activation is pro-inflammatory in influenza infection and pharmacologic blockade of A1-AdoR with the prototypical A1-AdoR antagonist DPCPX (8-Cyclopentyl-1,3-diproopylxanthine) ameliorates adenosine-induced acute lung injury in influenza-infected mice. Influenza-infected mice were treated with DPCPX (1 mg/kg/day), administered by implanted osmotic minipump (Alzet). The effects of this A1-AdoR antagonist on body weight, arterial O2 saturation (measured by pulse oximetry) and survival were investigated in 2 groups of 10 individually-marked influenza-infected mice. For some outcome measures, we also evaluated the effect of daily administration of the A2b-AdoR antagonist enprofylline (4 mg/kg I.P., in 100 μl 10% ethanol in saline; EMD Biosciences), to determine whether A2b-AdoR blockade also modulates influenza outcomes. […] 10% of DPCPX-treated mice survived infection. […] (not shown). […] (not shown).
(§3) Mice were infected intranasally with 50 μl influenza A/WSN/33 under 3% isoflurane anesthesia. Mock-infected animals received 50 μl of virus diluent (PBS with 0.1% BSA). In some experiments, mice were individually marked and weighed daily.

influenza-infected mice [2] = assay: Mortality / survival of treated influenza-infected mice; assay type: in vivo, mouse
Method: as §1, §2, §3

influenza-infected mice [3] = assay: Arterial O2 saturation (SpO2) by MouseOx pulse oximetry, peripheral hypoxemia; assay type: in vivo, mouse
Method: as §1, with “Importantly, APCP gavage had no effect on lung homogenate virus titers at 2 d.p.i. (not shown).” left out
A1-AdoR activation is pro-inflammatory in influenza infection and pharmacologic blockade of A1-AdoR with the prototypical A1-AdoR antagonist DPCPX (8-Cyclopentyl-1,3-diproopylxanthine) ameliorates adenosine-induced acute lung injury in influenza-infected mice. […] The effects of this A1-AdoR antagonist on body weight, arterial O2 saturation (measured by pulse oximetry) and survival were investigated in 2 groups of 10 individually-marked influenza-infected mice. For some outcome measures, we also evaluated the effect of daily administration of the A2b-AdoR antagonist enprofylline (4 mg/kg I.P., in 100 μl 10% ethanol in saline; EMD Biosciences), to determine whether A2b-AdoR blockade also modulates influenza outcomes. […]

influenza A/WSN/33 = assay: Lung homogenate virus titers; assay type: in vivo, mouse
Method: as §1, §2

influenza-infected mice [4] = assay: Total BAL cell counts (pulmonary inflammation); assay type: in vivo, mouse; settings: 6 d.p.i.; 1 mg/kg/day by osmotic minipump
Method: as §2
Following removal of the left lung, the right lung was lavaged in situ with 0.5 ml of sterile saline. […] Numbers of viable alveolar macrophages, lymphocytes, and polymorphonuclear cells were calculated from total leukocytes (counted using a hemocytometer with 0.4% trypan blue exclusion to assess viability) and differential counts of Diff-Quik-stained cytocentrifuge preparations. […] BAL protein and LDH content were determined by standard colorimetric assays.

influenza-infected mice [5] = assay: Lung water content (wet:dry weight ratio); assay type: in vivo, mouse; settings: 6 d.p.i.
Method: as §2
The right lung was removed weighed, dried in an oven at 55° C. for 5 days, then reweighed. Wet-to-dry weight ratio provides an index of intrapulmonary fluid accumulation.

[6] = system: BALB/c mice infected with influenza A/WSN/33; assay: Heart rate (bradycardia) by pulse oximetry in influenza-infected mice; assay type: in vivo; settings: 6 days infection, 10,000 PFU/mouse; systemic treatment
[7] = system: influenza H1N1 virus (A/WSN/33) infected BALB/c mice; assay: Alveolar fluid clearance in influenza-infected mice (compound added to fluid clearance instillate); assay type: in vivo, mouse; settings: 2 d.p.i., 10 μM in fluid clearance instillate, 30-min ventilation period
[8] = 1 mg/kg/day by implanted osmotic minipump

5′-(α,β-methylene)diphosphate [APCP]
influenza-induced loss of body weight (influenza-infected mice [1]; daily gavage 20 mg/kg in 200 μl saline): no significant effect | treated mice that survived infection (influenza-infected mice [2]; daily gavage 20 mg/kg, all untreated mice died): 20% | mortality (delay) (influenza-infected mice [2]; daily gavage 20 mg/kg, vs untreated infected mice): significantly delayed mortality | onset of peripheral hypoxemia (SpO2) (influenza-infected mice [3]; daily gavage 20 mg/kg, conscious mice): significantly delayed | lung homogenate virus titers (influenza A/WSN/33; 2 d.p.i., daily gavage 20 mg/kg): no effect

CCCn1c(=O)c2[nH]c(C3CCCC3)nc2n(CCC)c1=O [DPCPX, 8-cyclopentyl-1,3-dipropylxanthine]
influenza-induced weight loss (influenza-infected mice [1]; [8]): neither DPCPX nor enprofylline had any significant effect | mortality (delay) (influenza-infected mice [2]; [8]): significantly delayed mortality | treated mice that survived infection (influenza-infected mice [2]; [8]): 10% | onset of peripheral hypoxemia (influenza-infected mice [3]; [8]): significantly delayed | lung homogenate virus titers (influenza A/WSN/33; 6 d.p.i., 1 mg/kg/day by osmotic minipump): Neither DPCPX nor enprofylline had any effect | total BAL cell counts (influenza-infected mice [4]): significant reduction | lung water content (wet:dry weight ratio) (influenza-infected mice [5]; 1 mg/kg/day by osmotic minipump): significantly reduced | influenza-induced bradycardia (heart rate) [6]: reversed

N#CC(=C(N)Sc1ccccc1N)C(C#N)=C(N)Sc1ccccc1N [U0126, 1,4-diamino-2,3-dicyano-1,4-bis[2-aminophenylthio] butadiene]
WSN virus-induced suppression of alveolar fluid clearance [7]: reversed

CCCn1c(=O)[nH]c(=O)c2[nH]cnc21 [enprofylline]
influenza-induced weight loss (influenza-infected mice [1]; daily 4 mg/kg I.P. in 100 μl 10% ethanol in saline): neither DPCPX nor enprofylline had any significant effect | lung homogenate virus titers (influenza A/WSN/33; 6 d.p.i., daily 4 mg/kg I.P.): Neither DPCPX nor enprofylline had any effect | lung water content (wet:dry weight ratio) (influenza-infected mice [5]; daily 4 mg/kg I.P.): no such effect

CNCCC(Oc1ccc(C(F)(F)F)cc1)c1ccccc1 (stereo not drawn) [fluoxetine]
WSN virus-induced suppression of alveolar fluid clearance [7]: reversed

Source: patent publication US20130123345A1, “METHOD OF TREATING A VIRAL INFECTION D[…] […] ADENOSINE RECEPTOR PATHWAY” (THE OHIO STATE UNIVERSITY, priority 2010, published 2013)
